Earlier results in patent US11896953B2, “HLB copolymers” (Sigma-Aldrich Co. LLC, priority 2017, dated 2024).

Details: 20-analyte mix for extended screening (Table 22)
In the case of `N=C(N)NC(=O)c1nc(Cl)c(N)nc1N` [Amiloride], the “Log P” value is given as −0.30. In the case of `CN(C)CCC=C1c2ccccc2CCc2ccccc21` [Amitriptyline], the “Log P” value is listed as 5.10. For `CN1[C@H]2CC[C@@H]1[C@@H](C(=O)O)[C@@H](OC(=O)c1ccccc1)C2` [Benzoylecgonine], the “Log P” value is given as 1.71. In the case of `CC[C@H]1OC(=O)[C@H](C)[C@@H](O[C@H]2C[C@@](C)(OC)[C@@H](O)[C@H](C)O2)[C@H](C)[C@@H](O[C@@H]2O[C@H](C)C[C@H](N(C)C)[C@H]2O)[C@](C)(OC)C[C@@H](C)C(=O)[C@H](C)[C@@H](O)[C@]1(C)O` [Clarithromycin], the “Log P” value is given as 3.16. For `O=[N+]([O-])NC1=NCCN1Cc1ccc(Cl)nc1` [Imidacloprid], the “Log P” value is given as 0.57. For `CCCCc1nc(Cl)c(CO)n1Cc1ccc(-c2ccccc2-c2nn[nH]n2)cc1` [Losartan], the “Log P” value is given as 6.10. For `CN1CCCCC1CCN1c2ccccc2Sc2ccc([S+](C)[O-])cc21` (centres unmarked) [Mesoridazine], the “Log P” value is given as 3.90. For `CN(C)CCN(Cc1cccs1)c1ccccn1` [Methapyrilene], the “Log P” value is given as 2.87. For `CN1CCN2c3ccccc3Cc3ccccc3C2C1` (centres unmarked) [Mianserin], the “Log P” value is listed as 3.52. In the case of `CN1CCN2c3ncccc3Cc3ccccc3C2C1` (centres unmarked) [Mirtazapine], the “Log P” value is given as 2.90. In the case of `CCc1nn(CCCN2CCN(c3cccc(Cl)c3)CC2)c(=O)n1CCOc1ccccc1` [Nefazodone], the “Log P” value is given as 4.70. In the case of `Cc1ccnc2c1NC(=O)c1cccnc1N2C1CC1` [Nevirapine], the “Log P” value is listed as 2.50. For `CNC(=C[N+](=O)[O-])NCCSCc1csc(CN(C)C)n1` [Nizatidine], the “Log P” value is given as 1.10.

Same assay, conditions: analytes of the six analyte preliminary screen (Table 18)
For `Oc1ccc2ccc(O)cc2c1` [2,7-dihydroxynaphthalene], the “Log P” value is listed as 2.3. For `Cc1ccc(C(N)=O)cc1` [p-Toluamide], the “Log P” value is given as 1.2.

Same assay, conditions: eight analytes of the 3-step protocol evaluations (Table 25)
For `CNCCCC1c2ccccc2C=Cc2ccccc21` [Protriptyline], the “Log P” value is given as 4.70.

Same assay, conditions: hydrophilic monomers
In the case of `C=CC#N` [acrylonitrile], the “log P” value is listed as 0.25.
